Experiment: xn = mol fraction of the nth substance listed

CCCN + CCO
Conditions | viscosity [mPa·s]
298.15 K, 100 kPa, x2 = 0.0515 | 0.3851
298.15 K, 100 kPa, x2 = 0.098 | 0.4053
298.15 K, 100 kPa, x2 = 0.2026 | 0.4571
298.15 K, 100 kPa, x2 = 0.2763 | 0.4993
298.15 K, 100 kPa, x2 = 0.3874 | 0.5717
298.15 K, 100 kPa, x2 = 0.4986 | 0.6539
298.15 K, 100 kPa, x2 = 0.6013 | 0.7371
298.15 K, 100 kPa, x2 = 0.7485 | 0.865
298.15 K, 100 kPa, x2 = 0.7991 | 0.9101
298.15 K, 100 kPa, x2 = 0.8981 | 0.9984
298.15 K, 100 kPa, x2 = 0.961 | 1.052
303.15 K, 101.33 kPa, x1 = 0.1084 | 0.9336
303.15 K, 101.33 kPa, x1 = 0.2091 | 0.8629
303.15 K, 101.33 kPa, x1 = 0.3178 | 0.7773
303.15 K, 101.33 kPa, x1 = 0.4096 | 0.7051
303.15 K, 101.33 kPa, x1 = 0.5111 | 0.6253
303.15 K, 101.33 kPa, x1 = 0.6177 | 0.5566
303.15 K, 101.33 kPa, x1 = 0.7059 | 0.5029
303.15 K, 101.33 kPa, x1 = 0.8061 | 0.4453
303.15 K, 101.33 kPa, x1 = 0.901 | 0.3982
313.15 K, 101.33 kPa, x1 = 0.1084 | 0.7854
313.15 K, 101.33 kPa, x1 = 0.2091 | 0.7216
313.15 K, 101.33 kPa, x1 = 0.3178 | 0.6541
313.15 K, 101.33 kPa, x1 = 0.4096 | 0.5979
313.15 K, 101.33 kPa, x1 = 0.5111 | 0.5352
313.15 K, 101.33 kPa, x1 = 0.6177 | 0.475
313.15 K, 101.33 kPa, x1 = 0.7059 | 0.4325
313.15 K, 101.33 kPa, x1 = 0.8061 | 0.3864
313.15 K, 101.33 kPa, x1 = 0.901 | 0.3474

CCCCOC(C)=O + Cc1ccccc1C
viscosity [mPa·s], 101 kPa
Conditions | 298.15 K | 308.15 K
x1 = 0.0481 | 0.751 | 0.652
x1 = 0.1501 | 0.735 | 0.64
x1 = 0.2484 | 0.722 | 0.63
x1 = 0.3482 | 0.71 | 0.621
x1 = 0.4474 | 0.7 | 0.614
x1 = 0.5002 | 0.696 | 0.61
x1 = 0.5477 | 0.692 | 0.607
x1 = 0.657 | 0.685 | 0.602
x1 = 0.7456 | 0.68 | 0.599
x1 = 0.8459 | 0.677 | 0.596
x1 = 0.9461 | 0.675 | 0.594

Oc1ccccc1Cl + CC(C)=O
101 kPa
Conditions | viscosity [mPa·s]
293.15 K, x1 = 0.09296 | 0.475
293.15 K, x1 = 0.1779 | 0.611
293.15 K, x1 = 0.3108 | 0.992
293.15 K, x1 = 0.4089 | 1.376
293.15 K, x1 = 0.5253 | 2.051
293.15 K, x1 = 0.6914 | 3.17
293.15 K, x1 = 0.8336 | 3.91
298.15 K, x1 = 0.101 | 0.442
298.15 K, x1 = 0.2004 | 0.644
298.15 K, x1 = 0.2997 | 0.857
298.15 K, x1 = 0.4006 | 1.217
298.15 K, x1 = 0.5 | 1.666
298.15 K, x1 = 0.5999 | 2.19
298.15 K, x1 = 0.6997 | 2.712
298.15 K, x1 = 0.7988 | 3.086
298.15 K, x1 = 0.9003 | 3.303
303.15 K, x1 = 0.09296 | 0.419
303.15 K, x1 = 0.1779 | 0.569
303.15 K, x1 = 0.3108 | 0.893
303.15 K, x1 = 0.4089 | 1.199
303.15 K, x1 = 0.5253 | 1.684
303.15 K, x1 = 0.6914 | 2.4
303.15 K, x1 = 0.8336 | 2.85
313.15 K, x1 = 0.09296 | 0.382
313.15 K, x1 = 0.1779 | 0.508
313.15 K, x1 = 0.3108 | 0.777
313.15 K, x1 = 0.4089 | 1.019
313.15 K, x1 = 0.5253 | 1.369
313.15 K, x1 = 0.6914 | 1.886
313.15 K, x1 = 0.8336 | 2.165
323.15 K, x1 = 0.09296 | 0.3515
323.15 K, x1 = 0.1779 | 0.465
323.15 K, x1 = 0.3108 | 0.687
323.15 K, x1 = 0.4089 | 0.893
323.15 K, x1 = 0.5253 | 1.154
323.15 K, x1 = 0.6914 | 1.527
323.15 K, x1 = 0.8336 | 1.735

C=COC(C)=O + CCCCO
303.15 K, 101.33 kPa
Conditions | viscosity [mPa·s]
x1 = 0.1008 | 1.622
x1 = 0.1999 | 1.211
x1 = 0.3008 | 0.944
x1 = 0.3993 | 0.768
x1 = 0.5055 | 0.634
x1 = 0.6002 | 0.547
x1 = 0.6998 | 0.482
x1 = 0.7997 | 0.433
x1 = 0.8749 | 0.405

CCCOC(=O)c1ccccc1 + CC#N
viscosity [mPa·s], 101.33 kPa
Conditions | x1 = 0.127 | x1 = 0.247 | x1 = 0.362 | x1 = 0.467 | x1 = 0.567 | x1 = 0.658 | x1 = 0.748 | x1 = 0.842 | x1 = 0.928
293.15 K | 0.439 | 0.48 | 0.544 | 0.614 | 0.755 | 0.879 | 1.113 | 1.522 | 2.048
303.15 K | 0.397 | 0.43 | 0.484 | 0.54 | 0.654 | 0.749 | 0.929 | 1.237 | 1.609
313.15 K | 0.362 | 0.386 | 0.431 | 0.479 | 0.57 | 0.652 | 0.786 | 1.025 | 1.307
323.15 K | 0.326 | 0.346 | 0.386 | 0.424 | 0.499 | 0.564 | 0.67 | 0.853 | 1.075

CCCCOC(C)=O + Cc1cccc(C)c1
viscosity [mPa·s], 101 kPa
Conditions | 298.15 K | 308.15 K
x1 = 0.0468 | 0.583 | 0.528
x1 = 0.1506 | 0.587 | 0.531
x1 = 0.2497 | 0.592 | 0.535
x1 = 0.3502 | 0.598 | 0.539
x1 = 0.4477 | 0.606 | 0.545
x1 = 0.4941 | 0.61 | 0.548
x1 = 0.549 | 0.615 | 0.551
x1 = 0.6505 | 0.625 | 0.559
x1 = 0.7501 | 0.637 | 0.568
x1 = 0.8511 | 0.651 | 0.577
x1 = 0.9409 | 0.664 | 0.587

Nc1ncnc2[nH]cnc12 + O
viscosity [mPa·s], 101.3 kPa
Conditions | 293.15 K | 298.15 K | 303.15 K | 308.15 K | 313.15 K | 318.15 K
x1 = 9.33e-05 | 1.006 | 0.895 | 0.803 | 0.738 | 0.623 | 0.595
x1 = 0.0001925 | 1.009 | 0.898 | 0.806 | 0.741 | 0.626 | 0.598
x1 = 0.0002792 | 1.011 | 0.9 | 0.808 | 0.743 | 0.628 | 0.6
x1 = 0.0003724 | 1.013 | 0.902 | 0.81 | 0.745 | 0.63 | 0.602
x1 = 0.0004489 | 1.015 | 0.904 | 0.812 | 0.747 | 0.632 | 0.604
x1 = 0.0005443 | 1.017 | 0.906 | 0.814 | 0.749 | 0.634 | 0.606

CCCCOC(C)=O + CCCCCCCCCCCC
298.15 K, 101.3 kPa
Conditions | viscosity [mPa·s]
x1 = 0.133 | 1.231
x1 = 0.2982 | 1.09
x1 = 0.4364 | 0.9867
x1 = 0.4791 | 0.9597
x1 = 0.5426 | 0.9188
x1 = 0.683 | 0.8358
x1 = 0.7904 | 0.7782
x1 = 0.8705 | 0.7393
x1 = 0.9238 | 0.7176
x1 = 0.9757 | 0.6938

Oc1ccccc1Cl + CCNc1ccccc1
viscosity [mPa·s], 101 kPa
Conditions | x1 = 0.1027 | x1 = 0.2022 | x1 = 0.3028 | x1 = 0.4011 | x1 = 0.5014 | x1 = 0.6004 | x1 = 0.7024 | x1 = 0.7991 | x1 = 0.8994
298 K | 2.403 | 2.916 | 3.666 | 4.186 | 4.763 | 5.01 | 5.008 | 4.647 | 4.064
303 K | 2.117 | 2.487 | 3.051 | 3.372 | 3.807 | 4.028 | 3.972 | 3.751 | 3.335
308 K | 1.852 | 2.161 | 2.557 | 2.828 | 3.16 | 3.314 | 3.299 | 3.134 | 2.844
313 K | 1.673 | 1.885 | 2.206 | 2.407 | 2.662 | 2.771 | 2.782 | 2.67 | 2.452
318 K | 1.491 | 1.67 | 1.925 | 2.166 | 2.287 | 2.372 | 2.392 | 2.317 | 2.137

Oc1ccccc1Cl + CNc1ccccc1
viscosity [mPa·s], 101 kPa
Conditions | x1 = 0.1013 | x1 = 0.2024 | x1 = 0.3005 | x1 = 0.4032 | x1 = 0.5007 | x1 = 0.6027 | x1 = 0.7 | x1 = 0.7936 | x1 = 0.9042
298 K | 2.395 | 2.887 | 3.546 | 4.142 | 4.746 | 4.883 | 4.922 | 4.587 | 3.898
303 K | 2.112 | 2.493 | 2.984 | 3.445 | 3.801 | 3.963 | 3.966 | 3.715 | 3.352
308 K | 1.84 | 2.126 | 2.526 | 2.863 | 3.129 | 3.277 | 3.305 | 3.117 | 2.77
313 K | 1.622 | 1.826 | 2.115 | 2.42 | 2.678 | 2.75 | 2.793 | 2.704 | 2.506
318 K | 1.443 | 1.598 | 1.883 | 2.075 | 2.302 | 2.34 | 2.42 | 2.342 | 2.198

CCCN + c1ccccc1
viscosity [mPa·s], 101 kPa
Conditions | x1 = 0.007866 | x1 = 0.01864 | x1 = 0.02795 | x1 = 0.03664 | x1 = 0.04697 | x1 = 0.0579 | x1 = 0.06586 | x1 = 0.07593 | x1 = 0.08436
303.15 K | 0.5618 | 0.5605 | 0.5588 | 0.5574 | 0.5554 | 0.5534 | 0.552 | 0.5501 | 0.548
313.15 K | 0.4898 | 0.4864 | 0.4837 | 0.4817 | 0.4766 | 0.4725 | 0.4704 | 0.467 | 0.4636

CCCN + CO
298.15 K, 100 kPa
Conditions | viscosity [mPa·s]
x2 = 0.0987 | 0.4013
x2 = 0.1995 | 0.4374
x2 = 0.2868 | 0.4756
x2 = 0.397 | 0.5323
x2 = 0.4985 | 0.5872
x2 = 0.5475 | 0.6104
x2 = 0.6249 | 0.6414
x2 = 0.6977 | 0.658
x2 = 0.8 | 0.652
x2 = 0.8982 | 0.6144
x2 = 0.9499 | 0.5827

O=[PH2][O-].[Na+] + O
Conditions | viscosity [mPa·s]
298.15 K, 101 kPa, x1 = 0.2095 | 4.83

CN1CCCN(C)C1=O + CCCCCCn1cc[n+](C)c1.[Cl-]
100 kPa
Conditions | viscosity [mPa·s]
298.15 K, x2 = 0.3083 | 45.85
308.15 K, x2 = 0.3981 | 63.85

— the CheMixHub viscosity set
